The values below come from ChEMBL document CHEMBL1201862, “PubChem BioAssay data set” (2004).

Among the test systems are A498; SF-268; Malme-3M; HOP-92; UACC-62; HT-29; IGROV-1; A549; COLO 205; MOLT-4; SNB-75; NCI-H460; SN12C; KM12; RXF 393; HOP-62; SK-MEL-28; HCT-116; OVCAR-5; SR.
Test in all cases: NCI anticancer screen, dose series, 48 h

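Interpolation was linear, between the two tested concentrations surrounding the appropriate level; five concentrations were tested over 48 hours in 96-well plates. The concentration for 50% growth inhibition is given as GI50.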 Activity calls are given as the source filed them. No stated cut-off is given here; in the data, active = GI50 up to about 1.1 µM and inactive = higher.

With `COc1ccc(C2COc3cc(O)c(O)cc3C2)cc1` (stereo unspecified), the GI50 was 9.84 µM (inactive) with A498; 14.8 µM (inactive) in the experiment on SF-268; 15.3 µM (inactive) with Malme-3M; 11.6 µM (inactive) in the experiment with HOP-92; 14.1 µM (inactive) with UACC-62; 40.7 µM (inactive) in the experiment with HT-29. In addition, the GI50 was 16.7 µM (inactive) with IGROV-1; 48.8 µM (inactive) in the experiment with A549; 10.6 µM (inactive) with COLO 205; 6.58 µM (inactive) in the experiment on MOLT-4; 43.8 µM (inactive) in the experiment with SNB-75; 24 µM (inactive) in the experiment with NCI-H460. The GI50 is 30.1 µM (inactive) with SN12C; 39.7 µM (inactive) with KM12; 6.87 µM (inactive) in the experiment with RXF 393; 76.4 µM (inactive) in the experiment with HOP-62; 10.7 µM (inactive) in the experiment with SK-MEL-28; 11.3 µM (inactive) with HCT-116. Also, the GI50 in the experiment with OVCAR-5 was 148 µM (inactive).

For the compound `COC1OC(=O)[C@H]2O[N+]([O-])=C(C)[C@@H]12` (stereo partly specified), the GI50 with A498, with SF-268, with Malme-3M, in the experiment with HOP-92, in the experiment on UACC-62 and in the experiment on HT-29 was > 100 µM (inactive) each time. The GI50 with IGROV-1, with A549, in the experiment with COLO 205, in the experiment with MOLT-4, with SNB-75 and with NCI-H460 was > 100 µM (inactive) in each case. Further, the GI50 with SN12C, in the experiment on KM12, in the experiment with RXF 393, with HOP-62, with SK-MEL-28 and in the experiment on HCT-116 was > 100 µM (inactive) in each case. Moreover, the GI50 with OVCAR-5 is > 100 µM (inactive).

Turning to `c1ccc(CSC(SCc2ccccc2)c2cccc3ccccc23)cc1`, the GI50 in the experiment with A498, in the experiment on SF-268, in the experiment with Malme-3M, in the experiment on UACC-62, in the experiment on HT-29 and with IGROV-1 was > 10 µM (inactive) each time. Also, the GI50 in the experiment on A549, in the experiment with COLO 205, in the experiment on MOLT-4, with SNB-75, in the experiment with NCI-H460 and in the experiment on SN12C was > 10 µM (inactive) in each case. The GI50 with KM12, in the experiment on RXF 393, in the experiment with HOP-62, in the experiment on SR, in the experiment with SK-MEL-28 and in the experiment with HCT-116 was > 10 µM (inactive) each time. Moreover, in the experiment with OVCAR-5, the GI50 is > 10 µM (inactive).

With `Cc1cc(N(CCC#N)S(=O)(=O)c2ccccc2)ccc1/C=N\c1cccc(C(=O)O)c1`, the GI50 with SF-268 is 60.1 µM (inactive); in the experiment with Malme-3M, > 100 µM (inactive); in the experiment with HOP-92, > 100 µM (inactive); in the experiment on UACC-62, > 100 µM (inactive); with HT-29, > 100 µM (inactive); in the experiment with IGROV-1, > 100 µM (inactive). Further, the GI50 in the experiment on A549 was > 100 µM (inactive); in the experiment on COLO 205, > 100 µM (inactive); in the experiment with MOLT-4, > 100 µM (inactive); with SNB-75, 35.6 µM (inactive); with NCI-H460 it was > 100 µM (inactive); in the experiment on SN12C, > 100 µM (inactive). Further, the GI50 with RXF 393, in the experiment on HOP-62, with SK-MEL-28, with HCT-116 and in the experiment on OVCAR-5 was > 100 µM (inactive) throughout.

With `Cc1cn(Cc2cnnn2CC2OC(n3cc(C)c(=O)[nH]c3=O)CC2O)c(=O)[nH]c1=O` (stereo unspecified), the GI50 with A498, with SF-268, in the experiment with Malme-3M, with HOP-92, in the experiment on UACC-62 and in the experiment with IGROV-1 was > 100 µM (inactive) each time. Besides, the GI50 in the experiment on A549, in the experiment on COLO 205, with MOLT-4, in the experiment with SN12C, in the experiment on KM12 and with RXF 393 was > 100 µM (inactive) throughout. In addition, the GI50 with HOP-62, with SK-MEL-28, in the experiment with HCT-116 and in the experiment with OVCAR-5 was > 100 µM (inactive) throughout.

As for `CCCCc1c2c(nc3c1CCc1cc4cc5c(nc4nc1-3)-c1nc3c(c(CCCC)c1CC5)CCC/C3=C\c1ccccc1)/C(=C/c1ccccc1)CCC2`, the GI50 in the experiment with SF-268, with Malme-3M, in the experiment on UACC-62, in the experiment on HT-29, in the experiment on IGROV-1 and in the experiment on A549 was > 100 µM (inactive) each time. Besides, the GI50 with COLO 205, with MOLT-4, with SNB-75, in the experiment with NCI-H460, in the experiment on SN12C and in the experiment with KM12 was > 100 µM (inactive) in each case. In addition, the GI50 in the experiment with RXF 393, in the experiment on HOP-62, in the experiment on SR, in the experiment with SK-MEL-28 and in the experiment on HCT-116 was > 100 µM (inactive) in each case.

`CN1C(=O)CN=C(c2ccccc2F)c2cc(N=C=S)ccc21`: the GI50 is 26.8 µM (inactive) in the experiment with A498; 67 µM (inactive) in the experiment with SF-268; > 100 µM (inactive) in the experiment on Malme-3M; 23.7 µM (inactive) in the experiment with HOP-92; 25.1 µM (inactive) in the experiment with UACC-62; 34.2 µM (inactive) in the experiment with HT-29. Moreover, the GI50 with IGROV-1 is 38.7 µM (inactive); in the experiment on A549, 33.9 µM (inactive); in the experiment on SNB-75, 33.5 µM (inactive); with NCI-H460, 36.6 µM (inactive); in the experiment on SN12C it was 96.2 µM (inactive); in the experiment on KM12 it was 44.6 µM (inactive). Moreover, the GI50 with RXF 393 was 36.6 µM (inactive); in the experiment on HOP-62 it was > 100 µM (inactive); in the experiment on HCT-116, 44.3 µM (inactive); in the experiment on OVCAR-5 it was > 100 µM (inactive).

Take `NC1CCCCC1.O=P(O)(O)C(CSc1ccccc1)P(=O)(O)O`: the GI50 in the experiment with A498, in the experiment on SF-268, in the experiment with Malme-3M, in the experiment with HOP-92, in the experiment on UACC-62 and in the experiment with HT-29 was > 100 µM (inactive) each time. In addition, the GI50 with IGROV-1, with A549, in the experiment with COLO 205, with MOLT-4, in the experiment on SNB-75 and with NCI-H460 was > 100 µM (inactive) each time. The GI50 in the experiment with SN12C, in the experiment on KM12, in the experiment with RXF 393, in the experiment with HOP-62, in the experiment on SK-MEL-28 and in the experiment on HCT-116 was > 100 µM (inactive) each time. The GI50 with OVCAR-5 is > 100 µM (inactive).

Turning to `Cc1c2ccncc2cc2c1[nH]c1ccccc12`, the GI50 in the experiment with A498 is 0.804 µM (active); with SF-268 it was 8.22 µM (inactive); in the experiment on Malme-3M it was 7.05 µM (inactive); in the experiment with HOP-92 it was 5.37 µM (inactive); in the experiment with UACC-62, 5.11 µM (inactive); with HT-29 it was 4.42 µM (inactive). The GI50 with IGROV-1 was 6.22 µM (inactive); in the experiment on A549 it was 3.22 µM (inactive); with COLO 205 it was 1.64 µM (inactive); in the experiment on MOLT-4, 1.98 µM (inactive); with SNB-75, 5.26 µM (inactive); with NCI-H460 it was 1.77 µM (inactive). In addition, the GI50 with SN12C is 1.58 µM (inactive); in the experiment on KM12, 4.56 µM (inactive); with RXF 393, 2.68 µM (inactive); with HOP-62, 8.71 µM (inactive); in the experiment on SK-MEL-28 it was 3.85 µM (inactive); with HCT-116 it was 2.44 µM (inactive). Further, in the experiment on OVCAR-5, the GI50 is 4.34 µM (inactive).

With `COc1cc(C(=O)C/C(CCC(=O)Nc2ccc(Cl)cc2Cl)=N/NC(=O)C(=O)NN)ccc1O`, the GI50 was > 100 µM (inactive) in the experiment on A498; > 100 µM (inactive) with SF-268; > 100 µM (inactive) with Malme-3M; > 100 µM (inactive) in the experiment with HOP-92; 53.8 µM (inactive) in the experiment on UACC-62; > 100 µM (inactive) in the experiment on HT-29. In addition, the GI50 with IGROV-1, in the experiment on A549, with COLO 205, in the experiment with SNB-75, in the experiment on NCI-H460 and with SN12C was > 100 µM (inactive) in each case. Further, the GI50 with KM12, with RXF 393, in the experiment on HOP-62, with SK-MEL-28, in the experiment on HCT-116 and with OVCAR-5 was > 100 µM (inactive) each time.

As for `CCC(C)(C)n1c(C)nc2c1C(=O)c1ccccc1C2=O`, the GI50 in the experiment with SF-268 is 29.6 µM (inactive); with Malme-3M, 32.2 µM (inactive); with UACC-62 it was 13.5 µM (inactive); in the experiment with HT-29 it was 31.6 µM (inactive); with IGROV-1, 34 µM (inactive); in the experiment with A549, 36.5 µM (inactive). For the same compound, the GI50 in the experiment on COLO 205 is 17 µM (inactive); with MOLT-4, 18.8 µM (inactive); in the experiment with SNB-75, 27.2 µM (inactive); in the experiment with NCI-H460 it was 12.2 µM (inactive); in the experiment with SN12C it was 31.5 µM (inactive); with KM12, 23.8 µM (inactive). In addition, the GI50 with RXF 393 is 21.1 µM (inactive); in the experiment with HOP-62 it was 30.5 µM (inactive); with SR, 9.33 µM (inactive); with SK-MEL-28 it was 46.8 µM (inactive); with HCT-116, 13.6 µM (inactive).
